Measurements from ChEMBL document CHEMBL4421717, “Antagonists and agonists of bitter taste receptors and uses thereof” (2012).
Active and inactive are the calls of the source. No cut-off for these calls is given here.

Assays:
Format in all cases: functional, cell-based
[1] = molecular target: Taste receptor type 2 member 31 (Homo sapiens) (UniProt P59538); assay: Agonist activity at recombinant human N-terminal rat ST3 receptor-fused TAS2R44 expressed in HEK293T cells co-expressing Galpha16gust44 assessed as effect on intracellular calcium level at 100 uM by FLIPR assay
[2] = molecular target: T1, Taste receptor type 2 member 3 (Homo sapiens) (UniProt Q9NYW6); assay: Agonist activity at recombinant human N-terminal rat ST3 receptor-fused TAS2R3 expressed in HEK293T cells co-expressing Galpha16gust44 assessed as effect on intracellular calcium level at 100 uM by FLIPR assay
T1 sequence (whole entry): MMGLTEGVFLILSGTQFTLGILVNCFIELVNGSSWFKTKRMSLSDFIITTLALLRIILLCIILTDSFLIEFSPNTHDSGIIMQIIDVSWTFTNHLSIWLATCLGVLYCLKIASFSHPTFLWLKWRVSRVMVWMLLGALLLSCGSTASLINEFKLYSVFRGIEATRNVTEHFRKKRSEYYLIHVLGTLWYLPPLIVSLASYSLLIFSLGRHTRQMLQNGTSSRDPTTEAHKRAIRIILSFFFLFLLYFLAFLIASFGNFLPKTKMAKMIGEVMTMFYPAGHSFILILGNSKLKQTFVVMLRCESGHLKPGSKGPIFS

[3] = molecular target: T2, Taste receptor type 2 member 9 (Homo sapiens) (UniProt Q9NYW1); assay: Agonist activity at recombinant human N-terminal rat ST3 receptor-fused TAS2R9 expressed in HEK293T cells co-expressing Galpha16gust44 assessed as effect on intracellular calcium level at 100 uM by FLIPR assay
T2 sequence (whole entry): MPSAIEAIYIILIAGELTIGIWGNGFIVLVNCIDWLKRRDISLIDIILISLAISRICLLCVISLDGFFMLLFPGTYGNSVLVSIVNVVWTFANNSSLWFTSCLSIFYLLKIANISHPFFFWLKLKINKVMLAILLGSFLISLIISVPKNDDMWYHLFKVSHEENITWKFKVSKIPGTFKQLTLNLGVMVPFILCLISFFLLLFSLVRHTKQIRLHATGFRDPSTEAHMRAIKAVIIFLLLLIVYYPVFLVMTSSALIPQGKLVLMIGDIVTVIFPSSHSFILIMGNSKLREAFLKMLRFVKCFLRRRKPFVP

[4] = molecular target: T3, Taste receptor type 2 member 13 (Homo sapiens) (UniProt Q9NYV9); assay: Agonist activity at recombinant human N-terminal rat ST3 receptor-fused TAS2R13 expressed in HEK293T cells co-expressing Galpha16gust44 assessed as effect on intracellular calcium level at 100 uM by FLIPR assay
T3 sequence (whole entry): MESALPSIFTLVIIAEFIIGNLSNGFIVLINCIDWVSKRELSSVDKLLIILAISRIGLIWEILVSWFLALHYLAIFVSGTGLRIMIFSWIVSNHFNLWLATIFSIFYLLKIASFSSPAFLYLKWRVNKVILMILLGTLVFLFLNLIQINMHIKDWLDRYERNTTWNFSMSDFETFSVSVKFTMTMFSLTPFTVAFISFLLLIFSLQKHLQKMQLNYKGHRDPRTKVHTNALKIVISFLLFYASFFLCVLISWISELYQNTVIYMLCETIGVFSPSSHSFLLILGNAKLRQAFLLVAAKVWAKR

[5] = molecular target: Taste receptor type 2 member 40 (Homo sapiens) (UniProt P59535); assay: Agonist activity at recombinant human N-terminal rat ST3 receptor-fused TAS2R40 expressed in HEK293T cells co-expressing Galpha16gust44 assessed as effect on intracellular calcium level at 100 uM by FLIPR assay
[6] = molecular target: T4, Taste receptor type 2 member 30 (Homo sapiens) (UniProt P59541); assay: Agonist activity at recombinant human N-terminal rat ST3 receptor-fused TAS2R47 expressed in HEK293T cells co-expressing Galpha16gust44 assessed as effect on intracellular calcium level at 100 uM by FLIPR assay
T4 sequence (whole entry): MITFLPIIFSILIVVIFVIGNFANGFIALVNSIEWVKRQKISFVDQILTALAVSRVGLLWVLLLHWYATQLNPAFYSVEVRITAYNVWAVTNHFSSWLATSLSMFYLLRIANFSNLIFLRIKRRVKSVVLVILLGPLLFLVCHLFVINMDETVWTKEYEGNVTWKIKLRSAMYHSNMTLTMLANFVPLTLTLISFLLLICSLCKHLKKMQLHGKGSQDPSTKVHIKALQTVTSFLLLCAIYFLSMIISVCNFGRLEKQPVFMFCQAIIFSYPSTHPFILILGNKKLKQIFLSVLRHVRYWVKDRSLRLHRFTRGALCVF

[7] = molecular target: Taste receptor type 2 member 31 (Homo sapiens, UniProt P59538); assay: Agonist activity at recombinant human N-terminal rat ST3 receptor-fused TAS2R44 expressed in HEK293T cells co-expressing Galpha16gust44 assessed as effect on intracellular calcium level by FLIPR assay
[8] = molecular target: T5, Taste receptor type 2 member 46 (Homo sapiens, UniProt P59540); assay: Antagonist activity at recombinant human N-terminal rat ST3 receptor-fused TAS2R46 expressed in HEK293T cells co-expressing Galpha16gust44 assessed as inhibition of 300 uM denatonium benzoate-induced intracellular calcium level 100 uM by FLIPR assay
T5 sequence (P59540 whole entry): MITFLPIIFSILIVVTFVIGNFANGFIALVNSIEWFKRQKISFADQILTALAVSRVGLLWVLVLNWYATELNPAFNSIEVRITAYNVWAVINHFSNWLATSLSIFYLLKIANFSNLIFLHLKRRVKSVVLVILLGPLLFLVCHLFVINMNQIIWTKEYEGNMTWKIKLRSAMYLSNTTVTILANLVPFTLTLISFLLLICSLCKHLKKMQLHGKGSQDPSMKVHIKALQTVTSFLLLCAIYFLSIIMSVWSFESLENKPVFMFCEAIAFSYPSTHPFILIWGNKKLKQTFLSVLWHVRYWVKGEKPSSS

[9] = molecular target: T5, Taste receptor type 2 member 46; assay: Antagonist activity at recombinant human N-terminal rat ST3 receptor-fused TAS2R46 expressed in HEK293T cells co-expressing Galpha16gust44 assessed as inhibition of 100 uM absinthin-induced intracellular calcium level 100 uM by FLIPR assay

Sequence of Taste receptor type 2 member 40 (Homo sapiens) (P59535 whole entry, the tested form may be a part): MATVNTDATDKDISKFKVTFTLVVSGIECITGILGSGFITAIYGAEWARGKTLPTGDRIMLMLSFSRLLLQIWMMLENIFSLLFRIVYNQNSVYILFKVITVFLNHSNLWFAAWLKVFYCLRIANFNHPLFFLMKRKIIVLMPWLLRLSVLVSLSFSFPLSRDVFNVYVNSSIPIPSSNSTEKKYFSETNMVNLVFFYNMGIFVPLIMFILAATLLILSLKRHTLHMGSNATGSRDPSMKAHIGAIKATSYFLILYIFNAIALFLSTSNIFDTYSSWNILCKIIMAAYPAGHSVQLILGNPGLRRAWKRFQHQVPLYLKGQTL
Sequence of Taste receptor type 2 member 31 (Homo sapiens) (P59538 whole entry, the tested form may be a part): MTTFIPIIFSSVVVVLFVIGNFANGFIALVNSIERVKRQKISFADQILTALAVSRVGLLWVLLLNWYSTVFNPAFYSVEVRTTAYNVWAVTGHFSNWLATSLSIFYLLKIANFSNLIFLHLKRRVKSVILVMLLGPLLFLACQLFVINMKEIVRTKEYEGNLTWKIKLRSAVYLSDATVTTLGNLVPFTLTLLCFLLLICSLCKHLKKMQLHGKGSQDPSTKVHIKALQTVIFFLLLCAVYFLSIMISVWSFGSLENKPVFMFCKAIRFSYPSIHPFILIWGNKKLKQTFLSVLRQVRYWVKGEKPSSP
Sequence of Taste receptor type 2 member 31 (P59538 whole entry, the tested form may be a part): as above

Structure (SMILES)	Activity [1]	Activity [2]	Activity [3]	Activity [4]	Activity [5]	Activity [6]	EC50 [7] [µM]	IC50 [8] [µM]	IC50 [9] [µM]
C/C1=C\C[C@H](O)/C(C)=C/[C@H]2OC(=O)[C@@H](C)C2CC1 (some centres undefined)	Active	inactive	inactive	inactive	inactive	inactive	31.5		
C/C1=C\C[C@H](O)[C@@H](C)C[C@H]2OC(=O)[C@@H](C)C2CC1 (some centres undefined)								51.4	57.8
